Experimental findings from PMC11407943, “Cdc14 phosphatases use an intramolecular pseudosubstrate motif to stimulate and regulate catalysis” (The Journal of Biological Chemistry, 2024) are described below.

Starred links: 1 amine or outer side, 2 acyl side, 3 side chain; linkers in the order of their positions; H or OH if unused. Positions of bridges follow the written chain, without caps; N, C: chain ends. Non-standard residues stand in square brackets, D forms with d. Residues, ends and D or L forms follow the SMILES beside them. No end group written: not given here. *: point of attachment. hTyr(3S-OH,4S-OH,3'-OSO3H) = N[C@H](C(=O)O)[C@H](O)[C@@H](O)c1ccc(O)c(OS(=O)(=O)O)c1; Orn(4R-OH,5R-OH) = O=C([C@H](C[C@@H](O)[C@@H](O)N[*:3])N[*:1])[*:2]; Pro(3S-OH,4S-Me) = C[C@H]1CN[C@H](C(=O)O)[C@H]1O; X1 = CCCCCOc1ccc(-c2cc(-c3ccc(C(=O)*)cc3)no2)cc1; Gln(3R-OH) = NC(=O)C[C@@H](O)[C@H](N)C(=O)O; Hyp = O=C(O)[C@@H]1C[C@@H](O)CN1; pS = N[C@@H](COP(=O)(O)O)C(=O)O

For one assay, the system named is WT hCdc14A. Description: Trans stimulation of WT hCdc14A by synthetic SLiCE peptides. The note with it: near-saturating DiFMUP (300 μM), pH 7.5, 30 °C.
The test system of assay [1] is hCdc14A^3A. In words: Trans stimulation of hCdc14A^3A by synthetic SLiCE peptides. To be noted: for stimulation of activity: near-saturating DiFMUP (300 μM), pH 7.5, 30 °C; for trans stimulation, interchangeability test: 2 mM peptide, 100 μM DiFMUP, 10 nM hCdc14A^3A, versus unstimulated.
Protocol: (§1) B, same as panel A with WT hCdc14A that contains a functional SLiCE motif. […] All reactions contained 200 μM peptide substrate and were run for 30 min. […] Data are means of six measurements and error bars are SDs. D, same as panel C with hCdc14A enzyme at 1 μM for human SLiCE substrate and 100 nM for yeast SLiCE and Acm1pS3 substrates. E, peptide stimulation assays using 10 μM DiFMUP as substrate were conducted as in Figures 3A and 6A with ScCdc14^1-374 (50 nM) and 2 mM each stimulating peptide. F, same as panel E with hCdc14A^3A (10 nM) using 100 μM DiFMUP.
(§2) For trans peptide stimulation assays, DiFMUP was used at a single concentration well above the measured KM for each enzyme. […] (where pS is phosphoSer), were assayed in Cdc14 reaction buffer with Biomol Green (Enzo Life Science) detection of released inorganic phosphate as previously described ([29]). Data were fit with a modified Michaelis–Menten equation including a substrate inhibition term in Prism.
The target in a further assay is ScCdc14^1-449 (Saccharomyces cerevisiae, UniProt Q00684). In words: Dephosphorylation of SLiCE phosphopeptides by ScCdc14^1-449. The note with it: 200 μM peptide, 30 min; enzyme 50 nM (yeast SLiCE), 1 μM (human SLiCE), 25 nM (Acm1pS3); mean of six.
ScCdc14^1-449, sequence (Q00684 1-449): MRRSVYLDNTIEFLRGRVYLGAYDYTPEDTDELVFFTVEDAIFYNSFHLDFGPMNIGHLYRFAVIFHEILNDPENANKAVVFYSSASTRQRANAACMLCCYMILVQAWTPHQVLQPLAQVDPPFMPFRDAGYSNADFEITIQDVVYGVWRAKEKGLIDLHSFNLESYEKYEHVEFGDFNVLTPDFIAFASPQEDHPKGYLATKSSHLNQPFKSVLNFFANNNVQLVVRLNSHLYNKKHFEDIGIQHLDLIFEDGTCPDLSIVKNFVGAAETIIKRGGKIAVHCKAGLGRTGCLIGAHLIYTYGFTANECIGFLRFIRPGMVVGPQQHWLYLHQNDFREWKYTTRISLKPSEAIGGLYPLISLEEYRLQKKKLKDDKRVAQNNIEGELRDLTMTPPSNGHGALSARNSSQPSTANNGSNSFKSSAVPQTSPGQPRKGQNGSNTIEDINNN
Another assay concerns the target T1, hCdc14A^Q395A (Homo sapiens, UniProt Q9UNH5, Q395A).
T1 construct: gene CDC14A
The note with it: n = 3.

The target of assay [2] is T2, hCdc14A^3A (Homo sapiens, UniProt Q9UNH5, L399A/R400A/K403A).
T2 construct: gene CDC14A
T2 sequence (Q9UNH5 1-413 L399A/R400A/K403A): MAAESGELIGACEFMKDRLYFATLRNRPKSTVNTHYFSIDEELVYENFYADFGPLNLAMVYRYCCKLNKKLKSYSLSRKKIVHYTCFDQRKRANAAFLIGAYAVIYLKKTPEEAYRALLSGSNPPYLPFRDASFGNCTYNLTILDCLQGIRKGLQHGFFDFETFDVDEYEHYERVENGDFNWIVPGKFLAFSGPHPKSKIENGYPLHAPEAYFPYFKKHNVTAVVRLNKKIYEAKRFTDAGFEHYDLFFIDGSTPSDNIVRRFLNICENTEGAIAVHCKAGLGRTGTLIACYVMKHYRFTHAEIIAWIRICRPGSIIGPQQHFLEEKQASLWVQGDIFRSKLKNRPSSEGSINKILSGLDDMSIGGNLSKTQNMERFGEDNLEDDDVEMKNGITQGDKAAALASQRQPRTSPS
To be noted: n = 3.
Protocol: (§3) Data from velocity versus substrate concentration plots were fit with the Michaelis–Menten equation in GraphPad Prism (https://www.graphpad.com/) to determine steady-state kinetic parameters kcat and KM. For trans peptide stimulation assays, DiFMUP was used at a single concentration well above the measured KM for each enzyme. […] (where pS is phosphoSer), were assayed in Cdc14 reaction buffer with Biomol Green (Enzo Life Science) detection of released inorganic phosphate as previously described ([29]). Data were fit with a modified Michaelis–Menten equation including a substrate inhibition term in Prism.
(§4) B, initial velocities as a function of increasing DiFMUP concentration were measured under steady-state conditions for the indicated ScCdc14 variants. […] Data are average values from at least three independent measurements. Error bars are SDs. Lines are best fits for the Michaelis–Menten equation. C, to better visualize differences in KM, all Vmax values from data in panel A were normalized to 1. […] E, a representative presteady-state reaction progress graph for reaction of the indicated ScCdc14 enzyme variants with 200 μM DiFMUP, measured in a stopped flow spectrofluorometer. Data were fit with Equation 1 (see Experimental procedures) to generate rates of the burst phase (kburst) of the reaction. […]

Another assay has as its target T3, hCdc14A^1-413 (Homo sapiens, UniProt Q9UNH5).
T3 construct: gene CDC14A
The note with it: n = 3.

A further assay has as its system ScCdc14^1-374. Description: Trans stimulation of ScCdc14^1-374 by synthetic SLiCE peptides. The note with it: for trans stimulation, interchangeability test: 2 mM peptide, 10 μM DiFMUP, 50 nM ScCdc14^1-374, versus unstimulated. Format: biochemical, Saccharomyces cerevisiae.
Assay [3] deals with hCdc14A. Description: Inhibition of hCdc14A activity toward DiFMUP (not shown). Format: biochemical, human.
The next assay concerns ScCdc14. In words: Inhibition of ScCdc14 activity toward DiFMUP (not shown). The class given is biochemical, Saccharomyces cerevisiae.
Assay [4] concerns hCdc14A. Description: Dephosphorylation of SLiCE phosphopeptides by hCdc14A. The note with it: 200 μM peptide, 30 min; enzyme 1 μM (human SLiCE), 100 nM (yeast SLiCE and Acm1pS3); mean of six.
Protocol: as §1, §2
Assay [5] concerns C. albicans cdc14^S411A and cdc14^S411E strains. In words: Agar plate patch assay, C. albicans cdc14 mutant strains. To be noted: colonies arising from cdc14^S411A and cdc14^S411E strains; YPD + 50 ng/ml micafungin.
Protocol: Values are means of at least six independent measurements and error bars are SDs. […] E, agar plate patch assay with the indicated Candida albicans strains on YPD or YPD + 50 ng/ml micafungin. Plates were incubated at 30 °C for 72 h prior to imaging. Images in panels D and E are representative of multiple experiments performed with three independent isolates of the Ala and Glu mutant strains.
S. cerevisiae and C. albicans cultures were grown in yeast extract/peptone/dextrose (YPD) medium (10 g/l yeast extract, 20 g/l peptone, and 20 g/l glucose) at 30 °C with shaking at 225 rpm. C. albicans strains were supplemented with 8 μg/ml uridine. […] Agar was added to 20% (w/v) for growth on solid medium. […] For C. albicans patch assays, single colonies were resuspended in 100 μl PBS and spread on YPD agar plates ± 50 ng/ml micafungin.

T3 sequence (Q9UNH5 1-413): as the sequence (Q9UNH5 1-413 L399A/R400A/K403A) above, with A399L, A400R, A403K counted along it
T1 sequence (Q9UNH5 1-413 Q395A): as the sequence (Q9UNH5 1-413 L399A/R400A/K403A) above, with Q395A, A399L, A400R, A403K counted along it
Protocol for ScCdc14^1-449: as §1, §2
Protocol for WT hCdc14A: as §1, §2
Protocol for hCdc14A^1-413: as §3, §4
Protocol for hCdc14A^Q395A: as §3, §4

For TQGDKAAALASQR [3A peptide], the stimulation of activity result with WT hCdc14A and with hCdc14A^3A [1] was “little effect on activity of either enzyme” in each case.

Take “QTSPG[pS]PRKGQN [yeast SLiCE phosphopeptide]”: the dephosphorylation as substrate result at ScCdc14^1-449 was “excellent Cdc14 substrate for both ScCdc14 and hCdc14A, almost as reactive as the optimal Acm1pS3 phosphopeptide”.

As to `Cc1cc(=O)oc2c(F)c(OP(=O)(O)O)c(F)cc12` [DiFMUP], the values for the Km at hCdc14A^Q395A, at hCdc14A^3A [2] and on hCdc14A^1-413 were 2.6 µM, 0.52 µM and 24 µM, respectively.

Consider QTSPGQPRKGQN [yeast SLiCE peptide], for which the entries for the “trans stimulation, interchangeability test” value in the assay on ScCdc14^1-374 and in the assay with hCdc14A^3A [1] were “only able to significantly stimulate ScCdc14” and “no effect on hCdc14A activity”, respectively. Also, in the assay on ScCdc14^1-374 (near-saturating DiFMUP (60 μM), pH 7.5, 30 °C, normalized to no added peptide, at least three independent measurements), the “stimulation of catalytic rate” value is listed as “dose-dependent stimulation”.

On to TAGDKLRALKSQR [Q395A peptide], for which the stimulation of activity entry in the assay on WT hCdc14A and in the assay on hCdc14A^3A [1] was “little effect on activity of either enzyme” each time.

For “T[pS]GDKLRALKSQR [human SLiCE phosphopeptide, T(pS)… where pS is phosphoserine]”, the “inhibition of activity toward DiFMUP” value in the assay with hCdc14A [3] and with ScCdc14 was “unable to detect any inhibition” in each case. Besides, the dephosphorylation as substrate result on ScCdc14^1-449 and in the assay with hCdc14A [4] was “could not be dephosphorylated” each time.

`CCCCCOc1ccc(-c2cc(-c3ccc(C(=O)N[C@H]4C[C@@H](O)[C@@H](O)NC(=O)[C@@H]5[C@@H](O)[C@@H](C)CN5C(=O)[C@H]([C@H](O)CC(N)=O)NC(=O)[C@H]([C@H](O)[C@@H](O)c5ccc(O)c(OS(=O)(=O)O)c5)NC(=O)[C@@H]5C[C@@H](O)CN5C(=O)[C@H]([C@@H](C)O)NC4=O)cc3)no2)cc1` [micafungin] (X1-[Orn(4R-OH,5R-OH)]T[Hyp][hTyr(3S-OH,4S-OH,3'-OSO3H)][Gln(3R-OH)][Pro(3S-OH,4S-Me)]; lactam 1-C): in assay [5], the “sensitivity of sporadic faster growing colonies” value is given as “resistant”.

On to TQGDKLRALKSQR [human SLiCE peptide], for which the “trans stimulation, interchangeability test” value in the assay with ScCdc14^1-374 is recorded as “failed to significantly stimulate ScCdc14”; in the assay with hCdc14A^3A [1], “strongly stimulating hCdc14A”. For the same compound, the stimulation of activity result with WT hCdc14A is recorded as “relatively small effect”; with hCdc14A^3A [1], “strongly stimulated activity”.
